Where “and” joins values, the source holds several entries; their conditions need not be identical. Identical values can stand only once.
How the values were obtained:
Assay type in all cases: cell-based
lactic acid organisms = assay: Growth of lactic acid organisms in sectioned and formed ham (Example 7); settings: after 8 weeks storage at 1.11° C., no phosphate: 7.42
Experimental: (§1) Five 16 Kg batches of restructured ham were prepared. Fresh whole pork hams were skinned, boned, sectioned into muscles, and each muscle trimmed to remove all trimmable connective tissue and subcutaneous and intramuscular fat. […] The pumped muscles were macerated manually to facilitate brine absorption; tumbled; and stuffed into fibrous casings in 908.0 g chubs. The hams were weighed and then cooked to 71.1° C. internal temperature. Cooked hams were chilled for 24 hr at 0° C., vacuum packaged, and stored at 1.11° C. for 8 weeks. Sample homogenate was prepared by blending 11 g of ham with 99 mL of sterile 0.1% peptone diluent and agitating for 1 min in a stomacher. Serial dilutions were prepared by transferring 1.0 mL aliquots of the sample diluent to 9 mL of sterile 0.1% peptone. […] Duplicate samples were analyzed for each treatment.

aerobic plate count = assay: Aerobic plate count in sectioned and formed ham (Example 7); settings: after 8 weeks storage at 1.11° C., no phosphate: 6.03
Experimental: as §1

psychrotrophic organisms [1] = assay: Growth of psychrotrophic microorganisms in sectioned and formed ham (Example 7); settings: after 8 weeks storage at 1.11° C., no phosphate: 7.79
Experimental: as §1

psychrotrophic organisms [2] = assay: Growth of psychrotrophic microorganisms in sectioned and formed ham (Example 6); settings: 0.4% by weight phosphate in cooked ham; after 8 weeks storage at 0° C.; no phosphate: 3.97; listed as Sodium tripolyphosphate (pH about 9.8)
Experimental: Seven batches 40-pound (about 18.2 Kg) of cooked sectioned and formed boneless ham were manufactured to meet the following specifications: moisture, 71.2-73.7%; protein, 18.1-19.8%; fat, 3.66-6.31%; salt, 2.0%; and phosphate, 0.4%. The hams were manufactured to conform to the standards of identity for a cooked ham with a minimum of 18.5% protein fat free (PFF). The phosphate salts (0.4% by weight) indicated in Table 6 were added to six of the hams. […] After injection, the hams were vacuum-tumbled for 45 min, stuffed into 6.5-in (about 16.5 cm) diameter fibrous casings, and then cooked to an internal temperature of 71.1° C. Cooked hams were chilled for 8 hr at 0° C., vacuum packaged, and stored at 0° C. for 8 weeks. Sample homogenate was prepared by blending 11 g of ham with 99 mL of sterile 0.1% peptone diluent and agitating for 1 min in a stomacher. Serial dilutions were prepared by transferring 1.0 mL aliquots of the sample diluent to 9 mL of sterile 0.1% peptone. The appropriate dilutions were plated on plate count agar. The plates were incubated at 7° C. for 10 days.

With `O=P([O-])(O)OP(=O)([O-])O.[Na+].[Na+]` [Sodium acid pyrophosphate] the “log (colony forming units)/g” value (lactic acid organisms; 1.0% phosphate in ham) was 5.38 log (colony forming units)/g, the “log (colony forming units)/g” value (aerobic plate count; 1.0% phosphate in ham) was 4.49 log (colony forming units)/g and the “log (colony forming units)/g” value (psychrotrophic organisms [1]; 1.0% phosphate in ham) was 5.28 log (colony forming units)/g.
In the case of `O=P1([O-])OP(=O)([O-])OP(=O)([O-])OP(=O)([O-])OP(=O)([O-])OP(=O)([O-])O1.[Na+].[Na+].[Na+].[Na+].[Na+].[Na+]` [Sodium hexametaphosphate], the “log (colony forming units)/g” value (lactic acid organisms; 1.0% phosphate in ham) is reported as 6.24 log (colony forming units)/g, the “log (colony forming units)/g” value (aerobic plate count; 1.0% phosphate in ham) is reported as 4.55 log (colony forming units)/g and the “log (colony forming units)/g” value (psychrotrophic organisms [1]; 1.0% phosphate in ham) is reported as 4.62 log (colony forming units)/g.
With `O=P(O)(O)OP(=O)(O)OP(=O)(O)O` [Sodium tripolyphosphate] the “log (colony forming units)/g” value (lactic acid organisms; 0.4% phosphate in ham) was 6.62 log (colony forming units)/g, the “log (colony forming units)/g” value (lactic acid organisms; 1.0% phosphate in ham) was 6.70 log (colony forming units)/g and the “log (colony forming units)/g” value (psychrotrophic organisms [2]) was 1.58 log (colony forming units)/g and 1.84 log (colony forming units)/g. The “log (colony forming units)/g” value (aerobic plate count; 0.4% phosphate in ham) was 6.69 log (colony forming units)/g, the “log (colony forming units)/g” value (aerobic plate count; 1.0% phosphate in ham) was 5.67 log (colony forming units)/g and the “log (colony forming units)/g” value (psychrotrophic organisms [1]; 0.4% phosphate in ham) was 7.8 log (colony forming units)/g. For the same compound, the “log (colony forming units)/g” value (psychrotrophic organisms [1]; 1.0% phosphate in ham) was 5.91 log (colony forming units)/g.

Reference: patent US6509050B1, “Use of antimicrobial polyphosphates in food processing” (Astaris LLC, priority 1999, dated 2003)
